Patent publication US10577378B2, “EIF4A-inhibiting compounds and methods related thereto” (eFFECTOR Therapeutics, Inc., priority 2015, dated 2020)

Each molecule was assayed on MDA-MB-231 human breast cancer cells (assay: Cell proliferation assay (CellTiter-Glo, 72 hours treatment)). Conditions: Homo sapiens; MDA-MB-231 cells, 72 hours at 37° C., CellTiter-Glo; read-out: MDA-MB-231 cell proliferation assay (IC50).
Format: cell-based
Experimental: Human tumor cell lines were cultured in the appropriate media (DMEM and RPMI) supplemented with penicillin G (100 U/ml), streptomycin (100 μg/ml), 10% FBS in a humidified atmosphere of 5% CO2 maintained at 37° C. Exponentially growing cells were seeded at 2,500 cells/well in 96 well plates prior to drug treatment. The following day, cells were treated with either DMSO (vehicle control) or eIF4A inhibitors at the appropriate dose for 72 hours at 37° C. Following compound treatment, cell proliferation was assessed by CellTiter-Glo assay (Promega, Madison Wis.) according to the manufacturer's protocol. Dose-response curves were fitted by non-linear regression (sigmoidal dose response model) using KaleidaGraph (Synergy Software, Reading Pa.) and IC50 values were calculated.
To this end, IC50 values of less than 100 nM are labelled as “+++”, from 100 nM to 1000 nM are labelled as “++”, and greater than 1000 nM are labelled as “+” (NA means “not available”).
N#Cc1ccc([C@@]23Oc4cc(C#N)cnc4[C@]2(O)[C@@H](CN)C[C@H]3c2ccccc2)cc1 (racemic) [176F, rac-(5aR,6S,8R,8aR)-8-(aminomethyl)-5a-(4-cyanophenyl)-8a-hydroxy-6-phenyl-5a,7,8,8a-tetrahydro-6H-cyclopenta[4,5]furo[3,2-b]pyridine-3-carbonitrile] showed an IC50 of 100 to 1000 nM.
Work on COc1cncc2c1[C@]1(O)[C@H](O)[C@H](CN3[C@@H]4CCC[C@H]3CC4)[C@@H](c3ccccc3)[C@]1(c1ccc(C#N)cc1)O2 (single isomer, unassigned) [268F] yielded an IC50 of 100 to 1000 nM.
In the case of COc1cncc2c1[C@]1(O)[C@H](O)[C@H](CN3[C@@H]4COC[C@H]3C4)[C@@H](c3ccccc3)[C@]1(c1ccc(C#N)cc1)O2 (racemic) [267F, Rac-4-((4bS,5R,6S,7S,7aR)-6-(((1R,5S)-3-oxa-6-azabicyclo[3.1.1]heptan-6-yl)methyl)-4b,5-dihydroxy-4-methoxy-7-phenyl-4b,5,6,7-tetrahydro-7aH-cyclopenta[4,5]furo[2,3-c]pyridin-7a-yl)benzonitrile], the IC50 is reported as 100 to 1000 nM.
COc1cncc2c1[C@]1(O)[C@@H](CO)C[C@@H](c3ccccc3)[C@]1(c1ccc(CN)cc1)O2 (racemic) [234F, rac-(4bR,5R,7S,7aR)-7a-(4-(aminomethyl)phenyl)-5-(hydroxymethyl)-4-methoxy-7-phenyl-5,6,7,7a-tetrahydro-4bH-cyclopenta[4,5]furo[2,3-c]pyridin-4b-ol] was tested, and the IC50 was greater than 1000 nM.
With COc1cncc2c1[C@]1(O)[C@@H](CN3CCOCC3)[C@H](CO)[C@@H](c3ccccc3)[C@]1(c1ccc(C#N)cc1)O2 (racemic) [180F, Rac-4-((4bR,5R,6R,7S,7aR)-4b-hydroxy-6-(hydroxymethyl)-4-methoxy-5-(morpholino-methyl)-7-phenyl-4b,5,6,7-tetrahydro-7aH-cyclopenta[4,5]furo[2,3-c]pyridin-7a-yl)benzonitrile] the IC50 was less than 100 nM.
In the case of CN(C)C(=O)[C@@H]1[C@@H](c2ccccc2)[C@]2(c3ccc(C#N)cc3)Oc3cc(Cl)cnc3[C@]2(O)[C@@]1(C)O (racemic) [33Fb, Rac-(5aR,6S,7R,8S,8aS)-3-chloro-5a-(4-cyanophenyl)-8,8a-dihydroxy-N,N,8-trimethyl-6-phenyl-5a,7,8,8a-tetrahydro-6H-cyclopenta[4,5]furo[3,2-b]pyridine-7-carboxamide], the IC50 is reported as greater than 1000 nM.
COc1cncc2c1[C@]1(O)[C@H](O)[C@H](C(=O)N(C)C)[C@@H](c3ccccc3)[C@]1(c1ccc(C#N)cc1)O2 (single isomer, unassigned) [64F] was tested, and the IC50 was less than 100 nM.
CN(Cc1ccccc1)S(=O)(=O)[C@H]1[C@@H](O)[C@@]2(O)c3ncc(Cl)cc3O[C@@]2(c2ccc(Br)cc2)[C@@H]1c1ccccc1 (racemic) [123F, rac-(5aR,6S,7R,8S,8aS)—N-benzyl-5a-(4-bromophenyl)-3-chloro-8,8a-dihydroxy-N-methyl-6-phenyl-5a,7,8,8a-tetrahydro-6H-cyclopenta[4,5]furo[3,2-b]pyridine-7-sulfonamide] showed an IC50 of 100 to 1000 nM.
CNc1cc2c(c(OC)n1)[C@]1(O)[C@H](O)[C@H](CN(C)C)[C@@H](c3ccccc3)[C@]1(c1ccc(C#N)cc1)O2 (racemic) [150F, Rac-4-((5aR,6S,7S,8R,8aS)-7-((dimethylamino)methyl)-8,8a-dihydroxy-1-methoxy-3-(methylamino)-6-phenyl-6,7,8,8a-tetrahydro-5aH-cyclopenta[4,5]furo[3,2-c]pyridin-5a-yl)benzonitrile] showed an IC50 of less than 100 nM.
Work on COc1cncc2c1[C@]1(O)[C@H](O)[C@H](N)[C@@H](c3ccccc3)[C@]1(c1ccc(C(F)F)cc1)O2 (racemic) [270F, Rac-(4bS,5R,6R,7R,7aR)-6-amino-7a-(4-(difluoromethyl)phenyl)-4-methoxy-7-phenyl-5,6,7,7a-tetrahydro-4bH-cyclopenta[4,5]furo[2,3-c]pyridine-4b,5-diol] yielded an IC50 of 100 to 1000 nM.
In the case of COC1=C(C(=O)N(C)C)[C@@H](c2ccccc2)[C@]2(c3ccc(Br)cc3)Oc3cc(Cl)cnc3[C@]12O (racemic) [35F, rac-(5aR,6R,8aS)-5a-(4-bromophenyl)-3-chloro-8a-hydroxy-8-methoxy-N,N-dimethyl-6-phenyl-5a,8a-dihydro-6H-cyclopenta[4,5]furo[3,2-b]pyridine-7-carboxamide], the IC50 is reported as greater than 1000 nM.
COc1nc(Cl)cc2c1[C@]1(O)[C@H](O)[C@H](CN3CC(F)(F)C3)[C@@H](c3ccccc3)[C@]1(c1ccc(C#N)cc1)O2 (racemic) [207Fb, Rac-4-((5aR,6S,7S,8R,8aS)-3-chloro-7-((3,3-difluoroazetidin-1-yl)methyl)-8,8a-dihydroxy-1-methoxy-6-phenyl-6,7,8,8a-tetrahydro-5aH-cyclopenta[4,5]furo[3,2-c]pyridin-5a-yl)benzonitrile] showed an IC50 of 100 to 1000 nM.
Work on COc1cncc2c1[C@]1(O)[C@H](O)[C@H](C(=O)NCC(F)F)[C@@H](c3ccccc3)[C@]1(c1ccc(Br)cc1)O2 (racemic) [116F, Rac-(4bS,5R,6R,7S,7aR)-7a-(4-bromophenyl)-N-(2,2-difluoroethyl)-4b,5-dihydroxy-4-methoxy-7-phenyl-4b,6,7,7a-tetrahydro-5H-cyclopenta[4,5]furo[2,3-c]pyridine-6-carboxamide] yielded an IC50 of less than 100 nM.
For COc1cc2c(c(OC)n1)[C@]1(O)[C@H](O)[C@H](C(=O)N(C)C)[C@@H](c3ccccc3)[C@]1(c1ccc(Br)cc1)O2 (racemic) [229F, rac-(5aR,6S,7R,8R,8aS)-5a-(4-bromophenyl)-8,8a-dihydroxy-1,3-dimethoxy-N,N-dimethyl-6-phenyl-5a,7,8,8a-tetrahydro-6H-cyclopenta[4,5]furo[3,2-c]pyridine-7-carboxamide], the IC50 was less than 100 nM.
For COc1nc(C#N)cc2c1[C@]1(O)[C@H](O)[C@H](CN3CC(F)C3)[C@@H](c3ccccc3)[C@]1(c1ccc(C#N)cc1)O2 (racemic) [211Fa, Rac-(5aR,6S,7S,8R,8aS)-5a-(4-cyanophenyl)-7-((3-fluoroazetidin-1-yl)methyl)-8,8a-dihydroxy-1-methoxy-6-phenyl-5a,7,8,8a-tetrahydro-6H-cyclopenta[4,5]furo[3,2-c]pyridine-3-carbonitrile], the IC50 was less than 100 nM.
Work on N#Cc1ccc([C@@]23Oc4cc(Cl)cnc4[C@]2(O)[C@@H](C#N)[C@H](C(N)=O)[C@H]3c2ccccc2)cc1 (racemic) [52F, Rac-(5aR,6S,7R,8R,8aR)-3-chloro-8-cyano-5a-(4-cyanophenyl)-8a-hydroxy-6-phenyl-5a,7,8,8a-tetrahydro-6H-cyclopenta[4,5]furo[3,2-b]pyridine-7-carboxamide] yielded an IC50 of 100 to 1000 nM.
In the case of COc1cncc2c1[C@]1(O)[C@H](O)[C@H](CN(C)C)[C@@H](c3ccccc3)[C@]1(c1ccc(C#N)cc1)O2 (single isomer, unassigned) [66F], the IC50 is reported as less than 100 nM.
COc1nc(C#N)cc2c1[C@]1(O)[C@H](O)[C@H](CN3CCCC3)[C@@H](c3ccccc3)[C@]1(c1ccc(C#N)cc1)O2 (racemic) [158Fc, Rac-(5aR,6S,7S,8R,8aS)-5a-(4-cyanophenyl)-8,8a-dihydroxy-1-methoxy-6-phenyl-7-(pyrrolidin-1-ylmethyl)-5a,7,8,8a-tetrahydro-6H-cyclopenta[4,5]furo[3,2-c]pyridine-3-carbonitrile] gave an IC50 of less than 100 nM.
For COc1cncc2c1[C@]1(O)[C@@H](CN3CC4(COC4)C3)[C@H](CO)[C@@H](c3ccccc3)[C@]1(c1ccc(Br)cc1)O2 (racemic) [compound 201, Rac-(4bR,5R,6R,7S,7aR)-5-((2-oxa-6-azaspiro[3.3]heptan-6-yl)methyl)-7a-(4-bromophenyl)-6-(hydroxymethyl)-4-methoxy-7-phenyl-5,6,7,7a-tetrahydro-4bH-cyclopenta[4,5]furo[2,3-c]pyridin-4b-ol], the IC50 was less than 100 nM.
CN(C)C[C@H]1[C@@H](O)[C@@]2(O)c3ncc(Cl)cc3O[C@@]2(c2ccc(C(F)(F)F)cc2)[C@@H]1c1ccccc1 (single isomer, unassigned) [109F] gave an IC50 of 100 to 1000 nM.
Molecule Cc1ccc(S(=O)(=O)NN=C2C[C@@H](c3ccccc3)[C@]3(c4ccc(Br)cc4)Oc4cc(Cl)cnc4[C@]23O)cc1 (racemic) [132F, Rac-N′-((5aR,6S,8aS)-5a-(4-bromophenyl)-3-chloro-8a-hydroxy-6-phenyl-5a,6,7,8a-tetrahydro-8H-cyclopenta[4,5]furo[3,2-b]pyridin-8-ylidene)-4-methylbenzenesulfonohydrazide] has an IC50 greater than 1000 nM.
COc1nc(C#N)cc2c1[C@]1(O)[C@H](O)[C@H](CN3CCC34CC4(F)F)[C@@H](c3ccccc3)[C@]1(c1ccc(C#N)cc1)O2 (mixture of isomers) [221F, Rac-(5aR,6S,7S,8R,8aS)-5a-(4-cyanophenyl)-7-((1,1-difluoro-4-azaspiro[2.3]hexan-4-yl)methyl)-8,8a-dihydroxy-1-methoxy-6-phenyl-5a,7,8,8a-tetrahydro-6H-cyclopenta[4,5]furo[3,2-c]pyridine-3-carbonitrile] gave an IC50 of less than 100 nM.
With COc1nc(C#N)cc2c1[C@]1(O)[C@H](O)[C@H](CN3CCC(F)(F)CC3)[C@@H](c3ccccc3)[C@]1(c1ccc(Br)cc1)O2 (racemic) [157Fa, Rac-(5aR,6S,7S,8R,8aS)-5a-(4-bromophenyl)-7-((4,4-difluoropiperidin-1-yl)methyl)-8,8a-dihydroxy-1-methoxy-6-phenyl-5a,7,8,8a-tetrahydro-6H-cyclopenta[4,5]furo[3,2-c]pyridine-3-carbonitrile] the IC50 was 100 to 1000 nM.
